Experimental data taken from US6518315B1, “Medicinal uses of phenylaikanols and derivatives” (The University of Sydney, priority 1997, dated 2003).

Tests used:
rat mesenteric artery = assay: Vasodilation on rat mesenteric artery; settings: for potency in relaxing rat mesenteric artery / vascular bed, in words: preliminary investigation
Description: The proposed mechanism of neuropeptide release by 1-(4-hydroxy-3-methoxyphenyl)dodecan-3-ol, similar to that of capsaicin, was supported by studies in blood vessels. […] This contrasts with capsaicin which has similar activity in Guinea pig atria (force and rate) and relaxing rat mesenteric artery.

[1] = test system: capsaicin-sensitive DRG neuronal cells; assay: [Ca^2+]i transients in DRG neuronal cells in culture; format: cell-based, rat; settings: for Peak [Ca^2+]i (Average ± SD): 10 μM applied for 1 min, 2 mM Ca^2+
Description: Effect of Gingerol Analogues Towards Rat Dorsal Root Ganglia
Capsaicin, the pungent component in peppers of the Capsicum genus, family Solanaceae, has the ability to excite a subset of sensory neurons, which include polymodal nociceptors and warm thermoceptors (Fitzgerald, 1983) by opening non-selective cation channels that are permeable to Na^+, K^+, and Ca^2+ (Bevan and Szolcsanyi, 1990). It has been shown that capsaicin evoked a concentration-dependent rise in [Ca^2+]i in cultured dorsal root ganglion neurons. The duration of the elevation of [Ca^2+]i depended on the concentration of capsaicin (Choleswinski, et al., 1993). In this investigation peak [Ca^2+]i transient measurements are used as a model for testing gingerol analogues.
DRG from neonatal (3-5 days old) rat or adult Sprague-Dawley rats were incubated in Hanks CMF saline with 0.05% collagenase and 0.25% trypsin for 25 min at 37° C. Individual cells were obtained by trituration with fire polished Pasteur pipettes of diminishing diameters. Neurones were isolated from the cell suspension in 30% Percoll and then plated on collagen coated coverslips or in 24-well plates, then cultured in neurobasal medium with B27 supplement, 50 ng/ml 2.5 S nerve growth factor, 2 mM 1-glutamine and 100 U/ml penicillin/streptomycin. Cultures were maintained at 37° C. with 5% CO2. 30% Percoll increases the percentage of capsaicin-sensitive DRG neurones up to 70%. For peak [Ca^2+]i transients measurements, cells on coverslips were incubated with 5 μM Fura-2 AM for 30 min at 37° C. The coverslips were then mounted on a chamber attached to a fast sample application perfusion system which allows changing solutions in the second range. Recordings were made on the stage of a Nikon Diaphot inverted microscope fitted with a Nikon 40×Fluo (NA 0.85) DL Ph3 or 40×Fluo (NA 1.3) oil objective. [Ca^2+]i was calculated from dual excitation wavelength (340/380 nm) fluorescence measurements following an intracellular calibration procedure by the Grynkiewicz equation, using MCID M2/M4 v.3.0 (Imaging Res. Inc.) software. Cells were continuously perfused with a solution consisting of 140 mM NaCl, 2 mM CaCl2, 5 mM KCl, 20 mM HEPES, 10 mM glucose, pH 7.4. To study KCl evoked depolarisation, 50 mM NaCl was replaced by equimolar KCl. Cytoplasmic localisation of Fura-2 was tested with the Mn^2+ quenching technique (Dedov and Roufogalis, 1998). All experiments were performed at room temperature (20-23° C.).
Typical changes in [Ca^2+]i upon depolarisation were evoked by 50 mM KCl and by application of 1 μM capsaicin; both were applied for 30 sec. Capsaicin-evoked peak [Ca^2+]i transients are characterised by a fast rise and long-steady state [Ca^2+]i clearance from the cytoplasm. In capsaicin-sensitive cells the half-time of cytoplasmic Ca^2+ clearance was proportional to the amplitudes of peak [Ca^2+]i transients.
To examine the effect of gingerol derivatives, one or several compounds in succession at a concentration of 10 μM were applied for 1 min to the DRG neuronal cells followed by washing out for 4 min with physiological solution. To the capsaicin-sensitive cells, 10 μM capsaicin and 50 mM KCl were applied, respectively, to confirm the viability of the cells. In addition, morphological appearances of the cells were also examined at the end of experiment. […]

[2] = target: T1, Ca^2+-ATPase of dog cardiac SR (Canis lupus familiaris, UniProt O46674); assay: Sarcoplasmic reticulum Ca^2+-ATPase assay; format: biochemical; settings: 0 μM = 100
T1 construct: SR membrane (75 μg/ml): 24 μl; from tissue; host or cells: dog cardiac sarcoplasmic reticulum membranes
Description: A. Sarcoplasmic Reticulum Ca^2+-ATPase Assay
SR membrane (75 μg/ml): 24 μl
Test substance: appropriate volumes to give a dose-effect concentration
Incubation buffer: up to 240 μl
A portion at each concentration (54 μl) was aliquoted into 4 designated wells of the microplate (two of four wells were controls). Each well was mixed with ATP solution (20 mM, 6 μl), except the controls, using an 8 channel pipette. The controls were assayed in the absence of ATP or calcium.
The plate was incubated with the lid on, for 30 min at 37° C., colour reagent (160 μl) was then added and mixed with citrate solution (34%, 30 μl). The plate was developed at room temperature for 30 min then absorbance at 655 nm was read from the microplate reader. The Ca^2+-ATPase activity was quantitated, from a Pi standard curve, as concentration of liberated inorganic phosphate.
Stock solutions (10 mM) of test substance were prepared in DMSO, then series dilutions were made either in DMSO or in 1M HEPES to produce the dose-response concentrations. The maximum concentration of DMSO in the final assay solution was 2.5%.
Each concentration of test substance was assayed in duplicate in the presence and absence of ATP or calcium. Phosphate standards are run on each plate as follows:
Effect of gingerols and their derivatives on the Ca^2+-ATPase of dog cardiac SR.

cardiac Purkinje fibres = assay: Cardiac electrophysiology on Purkinje fibres; parameters: species or system dog; settings: up to 10 μM
Description: Cardiac Electrophysiological Activities of Gingerol and its Analogue
The basic cardiac electrophysiological properties were assessed using cardiac Purkinje fibres obtained from adult mongrel dogs.
Electrophysiology was carried out on dog heart purkinje fibre to test for potential arrhythmia. […] At high concentration (50 μM), however, [8]-gingerol reduced approximate 80% and 50% of action potential duration at 50% and 90% repolarisations respectively. Whereas the analogue reduced 75% and 30% respectively.

guinea pig atria = assay: Organ bath assay, isolated guinea pig atria (rate and force of contraction)
Description: Male guinea pigs, 3-4 weeks old, were killed by rapid cervical dislocation without induced anaesthesia. Then, the guinea pigs were dissected to isolate the atria which were immediately mounted vertically in an organ bath containing Krebs-Henseleit solution oxygenated with carbogen.
One gram tension was applied to the atria and the base line continuously adjusted until it was stable for 20 mins. The rate and force of contraction were recorded using Mac Lab equipment.
Test substances in DMSO were assayed to a maximum concentration of 50 μM at a final concentration of 2.5% of DMSO.

[3] = test system: brine shrimp (Artemia salina Leach); assay: Brine shrimp assay; format: in vivo
Description: Toxicity—Brine Shrimp Assay
The brine shrimp assay procedure determines LC50 values of active compounds. Activities of a broad range of known active compounds are manifested as toxicity to brine shrimp (Artemia salina Leach). There are many applications of the assay including analysis of toxic substances, anaesthetics, morphine-like substances and cocarcinogenicity of phorbol esters.
DMSO (dimethyl sulfoxide) was the solvent of choice because of its good solubilising properties and also because the substances used in the ATPase inhibition assays were already prepared with DMSO.
The method for testing solvent toxicity used was basically that reported by J L McLaughlin in Methods of Plant Biochemistry (1991), vol. 6 (K Hostettman, ed.), Academic Press, London, 1-32. DMSO solutions of the substances to be tested were added directly to the vials containing the brine shrimp. As the concentration of DMSO is that we wished to use was higher than the recommended 1% v/v testing of the toxicity of the DMSO was therefore necessary. The concentrations of DMSO tested on the shrimp, along with the results from the assay which was done in duplicate are listed below.
Brine shrimp toxicity was assayed, except for some minor modifications, according to the method of McLaughlin et al as reported in Brine Shrimp: A convenient bioassay for active plant constituents, B N Meyer, N R Ferrigni, J E Putnam, L B Jacobsen, D E Nichols and J L McLaughlin in Planta Medica (1982), 45, 31-34 and Crown gall tumours on potato discs and brine shrimp lethality: Two simple bioassays for higher plant screening and fractionation. J L McLaughlin. Methods of Plant Biochemistry (1991), vol. 6 (K Hostettman, ed.), Academic Press, London, 1-32. Ten shrimp were transferred to each of the vials and the volume adjusted to 4.9 mL. Each dose was performed in triplicate, including the control. In quick succession, the appropriate volume of additional DMSO for each dose, required to achieve a final concentration of 2%, was added before the appropriate volume of test solution. The vials were gently mixed and the time noted. After 24 hours, the number of survivors were counted and % mortality was determined. The test compounds were assayed at concentrations of 100 μM, 25 μM, 5 μM, 1 μM and 0.2 μM (and where appropriate concentrations of 0.04 μM and 0.008 μM).
The brine shrimp were able to survive without food in the vials over the 24 hour period and were therefore not fed.
The dose-response curves were constructed using the Sigmaplot computer program and the LC50 value was calculated from the intersection point of the curve and the 50% mortality line. The LC50 values were expressed in both μM and μg/mL.
For substances with low toxicity, the greater sign “>” indicated the highest concentration at which the assay was carried out as precipitation of the substances occurred above that concentration.

T1 sequence (O46674 whole entry): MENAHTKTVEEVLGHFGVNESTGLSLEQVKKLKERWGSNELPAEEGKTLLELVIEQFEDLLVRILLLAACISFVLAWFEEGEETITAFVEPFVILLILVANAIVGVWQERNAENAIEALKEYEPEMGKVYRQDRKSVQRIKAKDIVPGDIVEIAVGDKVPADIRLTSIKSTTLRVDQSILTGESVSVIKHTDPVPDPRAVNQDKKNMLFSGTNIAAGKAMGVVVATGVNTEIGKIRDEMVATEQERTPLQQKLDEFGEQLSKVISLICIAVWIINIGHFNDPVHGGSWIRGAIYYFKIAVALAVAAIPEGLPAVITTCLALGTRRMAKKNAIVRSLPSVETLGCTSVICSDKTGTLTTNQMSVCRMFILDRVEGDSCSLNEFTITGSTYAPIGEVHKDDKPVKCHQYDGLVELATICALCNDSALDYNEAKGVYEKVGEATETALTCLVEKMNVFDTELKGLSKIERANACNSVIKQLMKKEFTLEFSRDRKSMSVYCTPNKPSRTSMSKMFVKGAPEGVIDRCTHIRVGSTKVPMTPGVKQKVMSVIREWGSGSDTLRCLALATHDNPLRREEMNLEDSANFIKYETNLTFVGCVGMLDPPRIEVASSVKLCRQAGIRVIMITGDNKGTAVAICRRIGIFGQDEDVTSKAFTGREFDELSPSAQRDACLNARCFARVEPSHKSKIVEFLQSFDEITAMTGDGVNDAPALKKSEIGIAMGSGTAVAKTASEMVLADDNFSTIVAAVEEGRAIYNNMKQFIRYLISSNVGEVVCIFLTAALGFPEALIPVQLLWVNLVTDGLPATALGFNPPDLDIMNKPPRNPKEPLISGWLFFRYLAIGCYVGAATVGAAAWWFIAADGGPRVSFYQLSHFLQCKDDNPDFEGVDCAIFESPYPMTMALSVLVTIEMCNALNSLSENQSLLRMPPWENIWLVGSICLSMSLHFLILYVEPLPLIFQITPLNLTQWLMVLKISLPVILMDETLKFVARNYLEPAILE

With `CCCCCCCC(=O)CC(O)CCc1ccc(O)c(OC)c1` (centres unmarked) [3-hydroxy-1-(4-hydroxy-3-methoxyphenyl)dodecan-5-one] as the molecule, how does the “potency in relaxing rat mesenteric artery / vascular bed, in words” value (rat mesenteric artery) read?
Its value is “showed potency”.

With `CCCCCCCCC(C)(O)CCc1ccc(O)c(OC)c1` (centres unmarked) [3-methyl-1-(4-hydroxy-3-methoxyphenyl)undecan-3-ol] as the molecule, how does the “Peak [Ca^2+]i (Average ± SD)” value [1] read?
The value was 0 nM.

With `CCCCCCCC(O)CC(=O)CCc1ccc2c(c1)OCO2` (centres unmarked) [5-hydroxy-1-(3,4-methylenedioxyphenyl)dodecan-3-one] as the molecule, how does the “potency in relaxing rat mesenteric artery / vascular bed, in words” value (rat mesenteric artery) read?
The value was “showed potency”.

For `CCCCCCCC(=O)CCCCc1ccc(O)c(OC)c1` [1-(4-hydroxy-3-methoxyphenyl)dodecan-5-one], which “SR Ca^2+-ATPase activity” value ([2]; 5 μM) is on record?
Its value is 113.

And the “SR Ca^2+-ATPase activity” value ([2]; 10 μM)?
The value was 136.

And the “SR Ca^2+-ATPase activity” value ([2]; 25 μM)?
The value was 158.

And the “SR Ca^2+-ATPase activity” value ([2]; 50 μM)?
Its value is 126.

And the “SR Ca^2+-ATPase activity” value ([2]; 100 μM)?
Its value is 87.

What about the “SR Ca^2+-ATPase activity” value ([2]; 200 μM) of the same molecule?
Its value is 18.

With `CCCCCCCCCC(O)C(=O)c1ccc(O)c(OC)c1` (centres unmarked) [2-hydroxy-1-(4-hydroxy-3-methoxyphenyl)undecan-1-one] as the molecule, how does the melting point read?
Its melting point is 78 to 80 °C.

What does the source list for `CCCCCCCC(O)CC(=O)CCc1ccc(O)c(OC)c1` (centres unmarked) [[8]-gingerol, 5-hydroxy-1-(4-hydroxy-3-methoxyphenyl)dodecan-3-one, reference compound]?
effect on rate of depolarization, amplitude and duration of action potential (50% and 90%) (cardiac Purkinje fibres): insignificant effect; time to increased cardiac contractility after addition of the drug (guinea pig atria): 15 s

Which “time for tension to reach maximum after addition of a dose” value (guinea pig atria) does the source give for `CCCCCCCC(O)CC(=O)C=Cc1ccc(O)c(OC)c1` (centres unmarked) [[8]-dehydrogingerol, 5-hydroxy-1-(4-hydroxy-3-methoxyphenyl)dodecan-1-ene-3-one, reference compound] here?
Its value is “a few mins”.

Which “evoked [Ca^2+]i transients in Ca^2+-free medium or with ruthenium red” value ([1]; Ca^2+-free medium or ruthenium red (1 μM)) does the source give for `COc1cc(CNC(=O)CCCC/C=C/C(C)C)ccc1O` [Capsaicin, reference compound] here?
Its value is “abolished or greatly diminished”.

With `CCCCCCCCCC(O)CCc1ccc(O)c(OC)c1` (single isomer, unassigned) [enantiomer-1, 1-(4-hydroxy-3-methoxyphenyl)dodecan-3-ol] as the molecule, how does the EC50 (rat mesenteric artery; Rattus norvegicus, arteries 200-300 μm, precontracted with endothelin, read-out: EC50, relaxation of small arteries from rat mesentery) read?
Its EC50 is 0.5 µM.

Which “potency in relaxing rat mesenteric artery / vascular bed, in words” value (rat mesenteric artery) does the source give for `CCCCCCCCCC(=O)CCc1ccc(O)c(OC)c1` [[8]-paradol, 1-(4-hydroxy-3-methoxyphenyl)dodecan-3-one, reference compound] here?
The value was “showed potency”.

And the “Peak [Ca^2+]i (Average ± SD)” value [1]?
Its value is 200 nM.

Which “time for tension to reach maximum after addition of a dose” value (guinea pig atria) does the source give for `C[C@H]1O[C@@H](O[C@H]2[C@@H](O)C[C@H](O[C@H]3[C@@H](O)C[C@H](O[C@H]4CC[C@@]5(C)[C@H](CC[C@@H]6[C@@H]5C[C@@H](O)[C@]5(C)[C@@H](C7=CC(=O)OC7)CC[C@]65O)C4)O[C@@H]3C)O[C@@H]2C)C[C@H](O)[C@@H]1O` [digoxin, reference compound] here?
The value was “a few mins”.

Which results are given for `C[S+](C)[O-]` [DMSO, dimethyl sulfoxide]?
% Deaths ([3]; 1 % v/v): 0%; % Deaths ([3]; 2 % v/v): 0%; % Deaths ([3]; 3 % v/v): 0%; % Deaths ([3]; 4 % v/v): 0%; % Deaths ([3]; 5 % v/v): 9%; % Deaths ([3]; 7 % v/v): 12%; % Deaths ([3]; 9 % v/v): 18%; % Deaths ([3]; 11 % v/v): 57%; % Deaths ([3]; 13 % v/v): 96%; % Deaths ([3]; 15 % v/v): 100%; % Deaths ([3]; 20 % v/v): 100%; % Deaths ([3]; 25 % v/v): 100%

What does the source list for `CCCCCCCC(O)CCCCc1ccc(O)c(OC)c1` (centres unmarked) [1-(4-hydroxy-3-methoxyphenyl)dodecan-5-ol]?
Peak [Ca^2+]i (Average ± SD) [1]: 0 nM; HEART RATE (chronotropic activity), result in words (guinea pig atria; assayed to a maximum of 50 μM): ↑weakly
